“Also recorded” adds a separate entry of the source. Where two headings read alike, the source gives them in different places.
How the values were obtained:
pancreas [1] = assay: large animal study of pancreatic sP injection via the celiac artery; type: in vivo, dog
Procedure: A large animal study in dogs has recently been completed, seeking evidence for sP-induced pancreas toxicity following pancreatic injection of sP via the celiac artery. […] The injections were conducted by the Sick Kids' clinical imaging team. Since this VanilloidGenetics-sponsored study is unlikely to be published by itself, excerpt imaging data are provided in the Protocol Addendum, showing the pancreas-selective, rapidly transient (˜7 min) sP effect as measured with a co-injected, inert blue dye marker. The short-lived, physiological sP responses (hyperemia→pancreas→selective hyperperfusion and extravasation→normal pancreas appearance) illustrate the core effects expected to be duplicated in T1D patients.
A large animal study of pancreatic sP injection in dogs, using modern pancreatitis diagnostics is currently being conducted (Mansfield et al., J. Vet. Diagn. Invest. 23, 691-697 (2011)) and histopathology for the detection of possible pancreatitis lesions. Data are expected to be complete within about two weeks of this writing, in time for the anticipated Pre-CTA meeting. Dogs are a rational choice of large animal experimental model, since Dogs spontaneously develop pancreatitis, have successfully been used in studies of experimental pancreatitis and well tested diagnostics are available (Trivedi et al., J. Vet. Intern. Med. 25, 1241-1247 (2011)).

pancreas [2] = conditions: intra-arterial injection, recent-onset diabetic mice, dose range 0.01-250 nmol/kg; cited from earlier work
[3] = earlier and current trials, literature and trials registry, cited from earlier work
[4] = cited from earlier work; for tissue half-life: in vivo
pancreas [5] = assay: pancreas pathology / toxicity after intra-arterial sP injection in rodents; type: in vivo, mouse
From the text: Both islets are surrounded by normal exocrine pancreas tissue without any lesions typical for pancreatitis.
For disease induction, the standard experimental pancreatitis model employs multiple high dose injections of the toxic secretagogue caerulein (Koh et al., J. Cell. Mol. Med. 15, 2139-2149 (2011)).

SMILES: CSCC[C@H](NC(=O)[C@H](CC(C)C)NC(=O)CNC(=O)[C@H](Cc1ccccc1)NC(=O)[C@H](Cc1ccccc1)NC(=O)[C@H](CCC(N)=O)NC(=O)[C@H](CCC(N)=O)NC(=O)[C@@H]1CCCN1C(=O)[C@H](CCCCN)NC(=O)[C@@H]1CCCN1C(=O)[C@@H](N)CCCN=C(N)N)C(N)=O [sP, substance P]
- tolerability in canine studies (pancreas [1]; 10, 50, 100 or 250 nmol/kg BW): well tolerated
- sP-induced pancreas toxicity in dogs (pancreas [1]; celiac artery injection, study-relevant dose range, blood tests (>1200 assays) and histopathology): not pancreas toxic; also recorded: No drug-induced toxicity was found
- adverse events of sP celiac injections (pancreas [1]; entire canine study): without adverse events
- pancreas pathology consistent with pancreatitis (pancreas [2]): has not been observed
- toxicity / adverse events in human clinical sP trials [3]: without sP-attributable adverse events
- toxicity / adverse events in human clinical sP trials ([3]; listed as substance P): lack of toxicity
- vascular half-life time ([4]; as low as): < 30 s
- vascular half-life time ([4]; in some locales): up to a minute
- tissue half-life [4]: < 60 s
- tissue half-life ([4]; listed as substance P): a minute or less
- time to inactivation in tissue ([4]; proteolytic degradation and binding to NK1R in tissue): within seconds
- tolerability in rodent studies (pancreas [5]; 10, 50, 100 or 250 nmol/kg BW): well tolerated
- tissue damage or pancreatitis-like disease (pancreas [5]; sP injection without caerulein): does not cause tissue damage or pancreatitis-like disease
- sP pancreas toxicity in rodents (pancreas [5]; without caerulein pretreatment): has not been observed

Source: patent publication US9192647B2, “Method for reversing recent-onset type 1 diabetes (T1D) by administering substance P (sP)” (priority 2013, dated 2015)
